A short description of data set [1]: Therapeutic index, ratio of CC50 for human CEmx174 cells expressing GFP to IC50 for HIV-1 LAI infected in human CEMx174-LTR-GFP CG8 cells. To be noted: read-out: Ratio CC50/EC50.
Data set [2] has as its system Human immunodeficiency virus 1. Put plainly: Antiviral activity against HIV-1 LAI infected in human CEMx174-LTR-GFP CG8 cells assessed as inhibition of viral replication after 5 days. The data set is classed as functional, organism-based. As to conditions: Human immunodeficiency virus 1, LAI, 120 h.
A short description of data set [3]: Cytotoxicity against human CEmx174 cells expressing GFP after 5 days by resazurin assay. The data set is classed as cell-based. Background: Resazurin is reduced to fluorescent resorufin, in cell work by metabolically active cells.
The target of data set [4] is Cytochrome P450 3A4 (Homo sapiens, UniProt P08684). As to the kind of experiment: Inhibition of recombinant CYP3A4 (unknown origin) after 3 mins by LC-MS/MS analysis. The data set is classed as ADME.
Sequence of Cytochrome P450 3A4 (P08684 whole entry): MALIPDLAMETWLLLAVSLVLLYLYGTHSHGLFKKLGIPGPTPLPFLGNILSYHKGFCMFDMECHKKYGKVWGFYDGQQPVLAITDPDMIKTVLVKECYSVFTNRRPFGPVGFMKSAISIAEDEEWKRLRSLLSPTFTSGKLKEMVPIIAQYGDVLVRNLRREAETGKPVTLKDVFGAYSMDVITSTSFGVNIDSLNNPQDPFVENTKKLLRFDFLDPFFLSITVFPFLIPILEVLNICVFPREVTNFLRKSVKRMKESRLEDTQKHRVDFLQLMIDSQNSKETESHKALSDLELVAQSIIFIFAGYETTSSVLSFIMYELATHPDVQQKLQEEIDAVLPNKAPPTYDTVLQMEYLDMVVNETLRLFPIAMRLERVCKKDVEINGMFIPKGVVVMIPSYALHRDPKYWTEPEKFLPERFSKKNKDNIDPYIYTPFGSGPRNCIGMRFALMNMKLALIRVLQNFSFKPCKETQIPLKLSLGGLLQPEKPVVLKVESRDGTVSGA
The target in data set [5] is Cytochrome P450 2D6 (Homo sapiens, UniProt P10635). As to the kind of experiment: Inhibition of recombinant CYP2D6 (unknown origin) after 20 mins by LC-MS/MS analysis. The class given is ADME.
Sequence of Cytochrome P450 2D6 (P10635 whole entry): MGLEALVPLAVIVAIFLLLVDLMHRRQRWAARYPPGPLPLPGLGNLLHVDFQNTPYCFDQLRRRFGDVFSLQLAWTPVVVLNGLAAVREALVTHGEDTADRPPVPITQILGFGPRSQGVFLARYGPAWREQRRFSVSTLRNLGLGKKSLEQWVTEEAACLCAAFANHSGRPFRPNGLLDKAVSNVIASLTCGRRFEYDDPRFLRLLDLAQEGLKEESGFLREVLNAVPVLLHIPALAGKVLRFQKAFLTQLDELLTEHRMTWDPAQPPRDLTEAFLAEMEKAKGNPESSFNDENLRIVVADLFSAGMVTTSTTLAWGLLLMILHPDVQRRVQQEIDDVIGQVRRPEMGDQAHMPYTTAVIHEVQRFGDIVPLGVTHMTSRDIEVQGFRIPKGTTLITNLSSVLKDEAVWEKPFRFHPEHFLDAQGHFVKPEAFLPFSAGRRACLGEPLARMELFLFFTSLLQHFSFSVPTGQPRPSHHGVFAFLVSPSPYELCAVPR
Data set [6] concerns the target Cytochrome P450 2C9 (Homo sapiens, UniProt P11712). As to the kind of experiment: Inhibition of recombinant CYP2C9 (unknown origin) after 10 mins by LC-MS/MS analysis. The class given is ADME.
Data set [7] concerns the target T1, Cytochrome P450 1A2 (Homo sapiens, UniProt P05177).
T1 sequence (P05177 whole entry): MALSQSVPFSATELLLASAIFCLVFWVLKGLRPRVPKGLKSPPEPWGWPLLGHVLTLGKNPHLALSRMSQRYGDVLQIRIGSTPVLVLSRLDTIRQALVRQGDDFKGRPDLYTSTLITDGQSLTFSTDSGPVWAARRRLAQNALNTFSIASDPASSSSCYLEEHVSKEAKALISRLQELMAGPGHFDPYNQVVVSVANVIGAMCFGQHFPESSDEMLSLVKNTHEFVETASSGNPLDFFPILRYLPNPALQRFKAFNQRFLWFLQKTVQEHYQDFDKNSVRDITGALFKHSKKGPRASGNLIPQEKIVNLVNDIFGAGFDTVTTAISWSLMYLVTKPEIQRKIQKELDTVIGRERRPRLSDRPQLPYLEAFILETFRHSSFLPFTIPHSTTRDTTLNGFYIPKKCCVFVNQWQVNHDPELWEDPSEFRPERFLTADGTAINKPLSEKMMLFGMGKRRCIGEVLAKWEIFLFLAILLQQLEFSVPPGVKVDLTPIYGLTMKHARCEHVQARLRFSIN
As to the kind of experiment: Inhibition of recombinant CYP1A2 (unknown origin) after 10 mins by LC-MS/MS analysis. The class given is ADME.

Molecules are shown by their SMILES. pEC50, pIC50: −log10 of the molar value.

Sequence of Cytochrome P450 2C9 (P11712 whole entry): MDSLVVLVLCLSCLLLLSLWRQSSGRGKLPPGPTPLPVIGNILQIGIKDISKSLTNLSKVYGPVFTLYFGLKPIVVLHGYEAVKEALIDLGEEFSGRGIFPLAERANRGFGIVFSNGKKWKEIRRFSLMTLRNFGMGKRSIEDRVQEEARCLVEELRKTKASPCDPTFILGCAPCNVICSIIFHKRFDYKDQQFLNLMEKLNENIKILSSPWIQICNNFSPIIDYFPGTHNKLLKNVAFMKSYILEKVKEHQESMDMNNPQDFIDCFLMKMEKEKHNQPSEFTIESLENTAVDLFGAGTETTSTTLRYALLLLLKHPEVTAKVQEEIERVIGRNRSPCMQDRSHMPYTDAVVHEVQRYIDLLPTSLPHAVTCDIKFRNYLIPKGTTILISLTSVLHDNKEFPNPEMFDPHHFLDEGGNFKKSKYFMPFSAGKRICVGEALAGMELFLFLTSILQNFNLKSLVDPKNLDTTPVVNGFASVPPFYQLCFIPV

For orientation: pEC50 means the EC50 on a negative log10 scale, so that one unit is a factor of ten. For orientation: CC50 means the concentration giving 50% cytotoxicity. A high value points to better tolerance by the cells. `COc1ccc(-c2nc(CS(=O)(=O)c3cccc(Cl)c3)nc3ccsc23)cc1`: the selectivity ratio in data set [1] stood at 669. The pEC50 in data set [2] is 6.99. This compound also came in with a CC50 at 120 h in data set [3] of 69 µM.
With `COc1ccc(-c2nc(COc3cccc(Cl)c3)nc3ccsc23)cn1`, the selectivity ratio in data set [1] is above 130. For the same compound, the pEC50 in data set [2] was 6.42. Besides, the CC50 at 120 h in data set [3] is above 50 µM.
Regarding `O=S(=O)(Cc1nc(N2CCOCC2)c2sccc2n1)c1cccc(Cl)c1`, in data set [1], the selectivity ratio was above 84. The pEC50 in data set [2] was 6.23. Moreover, the CC50 at 120 h in data set [3] was above 50 µM.
Regarding `COc1ccc(-c2nc(C(F)S(=O)(=O)c3cccc(Cl)c3)nc3ccsc23)cn1` (stereo not drawn), the selectivity ratio in data set [1] was above 574. In addition, the pEC50 in data set [2] was 7.06. The CC50 at 120 h in data set [3] is above 50 µM.
Take `O=S(=O)(Cc1nc(-c2cccs2)c2sccc2n1)c1cccc(Cl)c1`: in data set [1], the selectivity ratio is above 357. Moreover, in data set [2], the pEC50 was 6.85. In data set [3], this compound yielded a CC50 at 120 h above 50 µM.
In the case of `COc1ccc(-c2nc(CSc3ccc(C(F)(F)F)cn3)nc3ccsc23)cn1`, the selectivity ratio in data set [1] is above 2.7. For the same compound, in data set [2], the pEC50 is 4.74. The same compound gave a CC50 at 120 h in data set [3] above 50 µM.
For `COc1ccc(-c2nc(S(=O)(=O)c3cccc(Cl)c3)nc3ccsc23)cn1`, in data set [1], the selectivity ratio is above 155. Further, in data set [2], the negative-log EC50 (pEC50) is 6.49. The compound further gave a 50% cytotoxic concentration (CC50) at 120 h in data set [3] above 50 µM.
With `O=c1ccc(-c2nc(CS(=O)(=O)c3cccc(Cl)c3)nc3ccsc23)c[nH]1`, the selectivity ratio in data set [1] was above 54. The pEC50 in data set [2] is 6.04. Also, the CC50 at 120 h in data set [3] was above 50 µM.
On to `c1ccc(-c2cc(CNc3nncc(-c4cccc5ccccc45)n3)n[nH]2)cc1`, for which, in data set [2], the pEC50 was 6.57. The compound also came in with a CC50 at 120 h in data set [3] above 10 µM.
As for `COc1ccc(-c2nc(CSc3cccc(Cl)c3Cl)nc3ccsc23)cn1`, in data set [1], the selectivity ratio is above 10. In addition, the pEC50 in data set [2] was 5.30. Further, the CC50 at 120 h in data set [3] was above 50 µM.
The matching figures for `COc1ccc(-c2nc(CSc3ccc(F)cc3F)nc3ccsc23)cn1`: above 10, 5.30 and above 50 µM.
Regarding `COc1ccc(-c2nc(/C=C\c3cccc(Cl)c3)nc3ccsc23)cn1`, the selectivity ratio in data set [1] worked out at 6.6. Further, in data set [2], the pEC50 is 5.10. For the same compound, the CC50 at 120 h in data set [3] is 53 µM.
`COc1ccc(-c2nc(CSc3cc(C)cc(C)c3)nc3ccsc23)cn1`: the selectivity ratio in data set [1] is above 64. Also, the pEC50 in data set [2] was 6.11. The same compound showed a CC50 at 120 h in data set [3] above 50 µM.
As to `CCC1=C(C(=O)OCC2CCCCC2)C(c2cccc(O)c2)NC(=O)N1` (stereo not drawn), the pEC50 in data set [2] was 6.28. The CC50 at 120 h in data set [3] was above 10 µM.
As for `COc1ccc(-c2nc(CC(=O)c3cccc(Cl)c3)nc3ccsc23)cn1`, in data set [1], the selectivity ratio was 150. Besides, in data set [2], the pEC50 is 6.70. Besides, the CC50 at 120 h in data set [3] amounted to 30 µM.
Regarding `O=S(=O)(Cc1nc(-c2ccncc2)c2sccc2n1)c1cccc(Cl)c1`, the selectivity ratio in data set [1] was above 264. Also, in data set [2], the pEC50 was 6.72. Besides, the half-maximal cytotoxic concentration (CC50) at 120 h in data set [3] is above 50 µM.
For `Cc1ccnc2c1NC(=O)c1cccnc1N2C1CC1` [NEVIRAPINE], the selectivity ratio in data set [1] was above 66. In addition, the CC50 at 120 h in data set [3] is above 10 µM.
As to `O=S(=O)(Cc1nc(-c2ccoc2)c2sccc2n1)c1cccc(Cl)c1`, in data set [1], the selectivity ratio is above 64. Also, in data set [2], the pEC50 is 6.11. The compound also yielded a CC50 at 120 h in data set [3] above 50 µM.
For the compound `COc1ccc(-c2nc(CCc3cccc(Cl)c3)nc3ccsc23)cn1`, the selectivity ratio in data set [1] was above 31. Further, the pEC50 in data set [2] is 5.80. In data set [3], the CC50 at 120 h is above 50 µM.
The like results for `O=S(=O)(Cc1nc(-c2cccnc2)c2sccc2n1)c1cccc(Cl)c1` were, in that order, above 103, 6.31 and above 50 µM.
As for `COc1ccc(-c2nc(CSc3cccc(Cl)c3)nc3ccsc23)cn1`, the selectivity ratio in data set [1] is above 714. The pEC50 in data set [2] was 7.85. The same compound gave a CC50 at 120 h in data set [3] above 10 µM.
Take `COc1ccc(-c2nc(CSc3cccc(C(F)(F)F)c3)nc3ccsc23)cn1`: the selectivity ratio in data set [1] was above 190. The pEC50 in data set [2] is 6.58. For the same compound, the CC50 at 120 h in data set [3] is above 50 µM.
As for `COc1ccc(Oc2nc(CS(=O)(=O)c3cccc(Cl)c3)nc3ccsc23)cc1`, in data set [1], the selectivity ratio was above 60. The pEC50 in data set [2] was 6.08. The compound further yielded a CC50 at 120 h in data set [3] above 50 µM.
Turning to `COc1ccc(-c2nc(C3(S(=O)(=O)c4cccc(Cl)c4)CC3)nc3ccsc23)cn1`, the selectivity ratio in data set [1] is above 724. Besides, the pEC50 in data set [2] was 7.16. For the same compound, the CC50 at 120 h in data set [3] was above 50 µM.
Regarding `COc1ccc(-c2nc(CNc3cccc(Cl)c3)nc3ccsc23)cn1`, the selectivity ratio in data set [1] was above 74. In data set [2], the pEC50 was 6.17. Moreover, in data set [3], the CC50 at 120 h was above 50 µM.
`COc1ccc(-c2nc(CCS(=O)(=O)c3cccc(Cl)c3)nc3ccsc23)cn1`: the selectivity ratio in data set [1] was above 9.2. Moreover, the pEC50 in data set [2] was 5.27. Further, the CC50 at 120 h in data set [3] is above 50 µM.
The term pIC50 denotes the negative decadic logarithm of the IC50, by convention in mol/L. Regarding `COc1ccc(-c2nc(CS(=O)(=O)c3cccc(Cl)c3)nc3ccsc23)cn1`, the selectivity ratio in data set [1] was above 400. The pIC50 in data set [4] is 5.17; in data set [5], below 5.00; in data set [6], 5.28; in data set [7] it was below 5.00. Besides, the pEC50 in data set [2] is 7.60. In data set [3], this compound registered a CC50 at 120 h above 10 µM.
For `O=S(=O)(Cc1nc(-c2ccnc(Cl)c2)c2sccc2n1)c1cccc(Cl)c1`, the selectivity ratio in data set [1] was found to be 233. Besides, the pEC50 in data set [2] is 6.57. Moreover, it took 63 µM to reach half-maximal cytotoxicity in data set [3] (CC50 at 120 h).
The like results for `COc1ccc(-c2nc(C(F)(F)S(=O)(=O)c3cccc(Cl)c3)nc3ccsc23)cn1` were, in that order, above 210, 6.63 and above 50 µM.
The like results for `COc1ccc(-c2nc(CSCc3cccc(Cl)c3)nc3ccsc23)cn1` were, in that order, above 2.2, 4.64 and above 50 µM.
As for `COc1ccc(-c2nc(CC(O)c3cccc(Cl)c3)nc3ccsc23)cn1` (stereo not drawn), the selectivity ratio in data set [1] was 3.4. Besides, the pEC50 in data set [2] is 5.05. Further, in data set [3], the CC50 at 120 h is 31 µM.
On to `COc1ccc(-c2nc(C(C)S(=O)(=O)c3cccc(Cl)c3)nc3ccsc23)cn1` (stereo not drawn), for which, in data set [1], the selectivity ratio was above 595. Also, the pEC50 in data set [2] was 7.08. The CC50 at 120 h in data set [3] was above 50 µM.
As to `COc1ccc(-c2nc(C[S+]([O-])c3cccc(Cl)c3)nc3ccsc23)cn1` (stereo not drawn), the selectivity ratio in data set [1] is above 93. Also, the pEC50 in data set [2] was 6.27. This compound yielded a CC50 at 120 h in data set [3] above 50 µM.
The like results for `COc1ccc(-c2nc(CSc3cccc(Br)c3)nc3ccsc23)cn1` were, in that order, above 316, 6.80 and above 50 µM.
The like results for `O=S(=O)(Cc1nc(-c2ccc(F)nc2)c2sccc2n1)c1cccc(Cl)c1` were, in that order, 6.6, 5.22 and 40 µM.
As for `COc1ccc(-c2nc(CSc3cc(Cl)ccc3Cl)nc3ccsc23)cn1`, in data set [1], the selectivity ratio was above 68. The pEC50 in data set [2] is 6.14. The compound also registered a CC50 at 120 h in data set [3] above 50 µM.
Turning to `O=S(=O)(Cc1nc(-c2ccc(Cl)nc2)c2sccc2n1)c1cccc(Cl)c1`, in data set [1], the selectivity ratio was found to be 21. In data set [2], the pEC50 was 5.49. In data set [3], this compound displayed a CC50 at 120 h of 70 µM.
As to `COc1ccc(Nc2nc(CS(=O)(=O)c3cccc(Cl)c3)nc3ccsc23)cc1`, the selectivity ratio in data set [1] was 18.8. The pEC50 in data set [2] was 5.49. In addition, the CC50 at 120 h in data set [3] came out at 60 µM.
On to `COc1ccc(-c2nc(C(C)(C)S(=O)(=O)c3cccc(Cl)c3)nc3ccsc23)cn1`, for which the selectivity ratio in data set [1] is above 21. Moreover, the pEC50 in data set [2] was 5.64. In data set [3], this compound came in with a CC50 at 120 h above 50 µM.

These data come from ChEMBL document CHEMBL3352046, “Serendipitous discovery of 2-((phenylsulfonyl)methyl)-thieno[3,2-d]pyrimidine derivatives as novel HIV-1 replication inhibitors” (Bioorg Med Chem Lett, 2014).
